Laboratory results as given in patent US20240124434A1, “ATF6 INHIBITORS AND USES THEREOF” (Altos Labs, Inc., priority 2018, published 2024).
≈ marks a conversion by molar mass, not a printed value. Read-outs that look alike come from different tables or passages of the source.

Key:
[1] = test system: ATF6; assay: ERSE ATF6-luciferase reporter assay (thapsigargin-induced ER stress); assay type: cell-based, human
[2] = In vitro microsomal stability, human liver microsomes; assay type: in vitro ADME; details: for microsomal CLint at […], 1 µM: intrinsic clearance, read-out: Clint @ hLM; for Rem. @ hLM (%): remaining fraction after 30 min, 1 μM compound, 0.5 mg/mL human liver microsomes, 1 mM NADPH
Procedure: (§1) Compounds were incubated at a final concentration of 1 μM with 0.5 mg/mL human liver microsomes (hLM) (#HMMCPL; Thermo), mouse liver microsomes (mLM) (#MSMCPL; Thermo) or rat liver microsomes (rLM) (#RTMCPL; Thermo) and 1 mM reduced dihydronicotinamide-adenine dinucleotide phosphate (NADPH) (#N1630; Sigma) in 100 mM phosphate buffer (pH 7.4) at 37° C. The reactions were terminated at 0, 5, 15 and 30 min by the addition of cold acetonitrile containing 50 ng/mL propranolol as an internal standard. […] Verapamil hydrochloride (#V4369 Aldrich) was used as a positive control in all studies.

[3] = In vitro microsomal stability, mouse liver microsomes; assay type: in vitro ADME; details: for half-life at […], 1 µM: mouse, read-out: T1/2 @ mLM; for half-life at […], 1 µM / microsomal CLint at […], 1 µM: mouse liver microsomes, pH 7.4; for microsomal CLint at […], 1 µM: intrinsic clearance, read-out: Clint @ mLM; for Rem. @ mLM (%): remaining fraction after 30 min, 1 μM compound, 0.5 mg/mL mouse liver microsomes, 1 mM NADPH
Procedure: as §1

[4] = In vitro microsomal stability, rat liver microsomes; assay type: in vitro ADME; details: for half-life at 1 μM / half-life at […], 1 µM: rat, read-out: T1/2 @ rLM; for Rem. @ rLM (%): remaining fraction after 30 min, 1 μM compound, 0.5 mg/mL rat liver microsomes, 1 mM NADPH
Procedure: as §1

[5] = Kinetic solubility (nephelometry); assay type: physicochemical; details: aqueous buffer, kinetic from dmso stock; PBS pH 7.4, 1% DMSO, 1 hour at 37° C., light scattering at 625 nm
Procedure: Concentration (μM) was then calculated by segmental regression. Amiodarone (#A8423 Aldrich) was used as positive control.

[6] = Homo sapiens, U2OS, 8 h, read-out: Inh. ATF6-Luc @ 1 μM [%], 1 μM test compound, thapsigargin-induced ER stress, U2-OS ATF6 luc reporter cells, 8 hr
[7] = Homo sapiens, U2OS, read-out: IC50 ATF6-Luc reporter [μM], dose-response 30 μM to 1 nM, thapsigargin-induced ER stress, U2-OS ATF6 luc reporter cells
[8] = human, human liver microsomes, pH 7.4, read-out: T1/2 @ hLM
[9] = pH 7.4, intrinsic clearance, rat liver microsomes, read-out: Clint @ rLM
[10] = Homo sapiens, U2OS, 8 h, 1 μM test compound, thapsigargin-induced ER stress, U2-OS ATF6 luc reporter cells, 8 hr, read-out: Inh. ATF6-Luc @ 1 μM [%]
[11] = Homo sapiens, U2OS, dose-response 30 μM to 1 nM, thapsigargin-induced ER stress, U2-OS ATF6 luc reporter cells, read-out: IC50 ATF6-Luc reporter

Work on `Cc1nn([C@@H](C)c2ccc(C(F)(F)F)cc2C(F)(F)F)cc1NC(=O)c1cc(-c2ccccn2)on1` [Compound 100, (S)—N-(1-(1-(2,4-bis(trifluoromethyl)phenyl)ethyl)-3-methyl-1H-pyrazol-4-yl)-5-(pyridin-2-yl)isoxazole-3-carboxamide] yielded an inhibition at 1 µM [1, 6] greater than 50%, an IC50 [1, 7] of less than 1 µM and a half-life at 1 μM [2, 8] of 38.2 min. For the same compound, the microsomal CLint at […], 1 µM ([2]; pH 7.4, human liver microsomes) was 36.2 µL/min/mg, the “Rem. @ hLM (%)” value [2] was 53.3% and the half-life at […], 1 µM [3] was 19.1 min. For the same compound, the microsomal CLint at […], 1 µM [3] was 72.6 µL/min/mg, the “Rem. @ mLM (%)” value [3] was 34.3% and the microsomal CLint at […], 1 µM [4, 9] was 33.4 µL/min/mg. The half-life at 1 μM ([4]; rat liver microsomes, pH 7.4) was 41.5 min, the “Rem. @ rLM (%)” value [4] was 51.4% and the solubility kinetic at 1 h [5] was 4.68 µM (≈ 2.38 µg/mL).
In the case of `Cc1ccc(-c2cc(C(=O)Nc3cnn(Cc4ccc(C(F)(F)F)cc4C(F)(F)F)c3)no2)o1` [Compound 22, N-(1-(2,4-bis(trifluoromethyl)benzyl)-1H-pyrazol-4-yl)-5-(5-methylfuran-2-yl)isoxazole-3-carboxamide], the inhibition at 1 µM [1, 10] is reported as less than 25%, the IC50 [1, 11] is reported as 1 to 10 µM and the half-life at 1 μM [2, 8] is reported as 6.5 min. The microsomal CLint at […], 1 µM ([2]; pH 7.4, human liver microsomes) was 212 µL/min/mg, the “Rem. @ hLM (%)” value [2] was 3.7% and the half-life at […], 1 µM [3] was 6.1 min. For the same compound, the microsomal CLint at […], 1 µM [3] was 228 µL/min/mg, the “Rem. @ mLM (%)” value [3] was 3.3% and the microsomal CLint at […], 1 µM [4, 9] was 204 µL/min/mg. The half-life at […], 1 µM ([4]; rat liver microsomes, pH 7.4) was 6.8 min and the “Rem. @ rLM (%)” value [4] was 4.5%.
For `CC(c1ccc(C(F)(F)F)cc1C(F)(F)F)n1cc(NC(=O)c2cc(-c3ccco3)on2)cn1` (centres unmarked) [Compound 12, N-(1-{1-[2,4-bis(trifluoromethyl)phenyl]ethyl}-1H-pyrazol-4-yl)-5-(furan-2-yl) isoxazole-3-carboxamide], the inhibition at 1 µM [1, 10] was greater than 50%, the IC50 [1, 11] was less than 1 µM and the half-life at 1 μM [2, 8] was 29.9 min. The microsomal CLint at […], 1 µM ([2]; pH 7.4, human liver microsomes) was 46 µL/min/mg, the “Rem. @ hLM (%)” value [2] was 46.1% and the half-life at […], 1 µM [3] was 4.6 min. For the same compound, the microsomal CLint at […], 1 µM [3] was 302 µL/min/mg, the “Rem. @ mLM (%)” value [3] was 1.02% and the microsomal CLint at […], 1 µM [4, 9] was 291 µL/min/mg. The half-life at […], 1 µM ([4]; rat liver microsomes, pH 7.4) was 4.8 min and the “Rem. @ rLM (%)” value [4] was 0.77%.
`O=C(Nc1cnn(C2CCc3ccccc32)c1)c1cc(-c2ccco2)on1` (centres unmarked) [Compound 19, N-(1-(2,3-dihydro-1H-inden-1-yl)-1H-pyrazol-4-yl)-5-(furan-2-yl) isoxazole-3-carboxamide] showed an inhibition at 1 µM [1, 10] of less than 25%, an IC50 [1, 11] greater than 10 µM and a solubility kinetic at 1 h [5] of 9.37 µM (≈ 3.38 µg/mL).
Compound `C[C@H](c1ccc(C(F)(F)F)cc1C(F)(F)F)n1cc(NC(=O)c2cnc(-c3ccccn3)s2)cn1` [Compound 104, (R)—N-(1-(1-(2,4-bis(trifluoromethyl)phenyl)ethyl)-1H-pyrazol-4-yl)-2-(pyridin-2-yl)thiazole-5-carboxamide] has an inhibition at 1 µM [1, 6] of 25 to 50%, an IC50 [1, 7] of 1 to 10 µM and a half-life at […], 1 µM [2, 8] of 73.2 min. The microsomal CLint at […], 1 µM ([2]; pH 7.4, human liver microsomes) was 18.9 µL/min/mg, the “Rem. @ hLM (%)” value [2] was 76.44% and the half-life at […], 1 µM [3] was 108 min. For the same compound, the microsomal CLint at […], 1 µM [3] was 12.9 µL/min/mg, the “Rem. @ mLM (%)” value [3] was 83.18% and the microsomal CLint at 1 μM [4, 9] was 3.32 µL/min/mg. For the same compound, the half-life at 1 μM ([4]; rat liver microsomes, pH 7.4) was 418 min, the “Rem. @ rLM (%)” value [4] was 92.9% and the solubility kinetic at 1 h [5] was 2.34 µM (≈ 1.2 µg/mL).
`CC(c1ccc(C(F)(F)F)cc1C(F)(F)F)n1cc(NC(=O)c2cc(-c3cccs3)on2)cn1` (centres unmarked) [Compound 9, N-(1-(1-(2,4-bis(trifluoromethyl)phenyl)-ethyl)-1H-pyrazol-4-yl)-5-(thiophen-2-yl)isoxazole-3-carboxamide] gave an inhibition at 1 µM [1, 10] of less than 25%, an IC50 [1, 11] of 1 to 10 µM and a solubility kinetic at 1 h [5] of 8.9 µM (≈ 4.45 µg/mL).
Work on `Cc1c(NC(=O)/C=C/c2ccco2)cnn1Cc1ccc(C(F)(F)F)cc1C(F)(F)F` [Compound 95, (E)—N-(1-(2,4-bis(trifluoromethyl)benzyl)-5-methyl-1H-pyrazol-4-yl)-3-(furan-2-yl)acrylamide] yielded an inhibition at 1 µM [1, 10] of less than 25% and an IC50 [1, 11] greater than 10 µM.
In the case of `C[C@@H](c1ccc(C(F)(F)F)cc1C(F)(F)F)n1cc(NC(=O)/C=C/c2ccco2)cn1` [Compound 86, (S,E)—N-(1-(1-(2,4-bis(trifluoromethyl)phenyl)ethyl)-1H-pyrazol-4-yl)-3-(furan-2-yl)acrylamide], the inhibition at 1 µM [1, 10] is reported as less than 25% and the IC50 [1, 11] is reported as greater than 10 µM.
With `CC(c1ccc(C(F)(F)F)cc1C(F)(F)F)n1cc(NC(=O)c2cc(-c3ccccn3)on2)cn1` (single isomer, unassigned) [“Enantiomer B” of Example S5, N-(1-(1-(2,4-bis(trifluoromethyl)phenyl)ethyl)-1H-pyrazol-4-yl)-5-(pyridin-2-yl)isoxazole-3-carboxamide] the IC50 [1] was greater than 10 µM and the “Inh. ATF6-Luc @ 1 μM [%]” value ([1]; 8 h, 1 µM) was “+ (+ refers to <25% inhibition at 1 μM)”.
For `CC(c1ccc(C(F)(F)F)cc1C(F)(F)F)n1cc(NC(=O)c2cc(-c3ccco3)on2)cn1` (single isomer, unassigned) [“Enantiomer B” of Example S6, N-(1-(1-(2,4-bis(trifluoromethyl)phenyl)ethyl)-1H-pyrazol-4-yl)-5-(furan-2-yl)isoxazole-3-carboxamide], the IC50 [1] was greater than 10 µM and the “Inh. ATF6-Luc @ 1 μM [%]” value ([1]; 8 h, 1 µM) was “+ (+ refers to <25% inhibition at 1 μM)”.
Compound `Cc1cccc(-c2cc(C(=O)Nc3cnn([C@H](C)c4ccc(C(F)(F)F)cc4C(F)(F)F)c3)no2)n1` [Compound 116, (R)—N-(1-(1-(2,4-bis(trifluoromethyl)phenyl)ethyl)-1H-pyrazol-4-yl)-5-(6-methylpyridin-2-yl)isoxazole-3-carboxamide] has an inhibition at 1 µM [1, 10] of 25 to 50% and an IC50 [1, 11] greater than 10 µM.
`COc1ccccc1-c1cc(C(=O)Nc2cnn([C@H](C)c3ccc(C(F)(F)F)cc3C(F)(F)F)c2)no1` [Compound 88, (R)N-(1-(1-(2,4-bis(trifluoromethyl)phenyl)ethyl)-1H-pyrazol-4-yl)-5-(2-methoxyphenyl)isoxazole-3-carboxamide] showed an inhibition at 1 µM [1, 10] of less than 25% and an IC50 [1, 11] greater than 10 µM.
`Cc1c(NC(=O)c2cc(-c3ccccn3)on2)cnn1[C@@H](C)c1ccc(C(F)(F)F)cc1C(F)(F)F` [Compound 98, (S)—N-(1-(1-(2,4-bis(trifluoromethyl)phenyl)ethyl)-5-methyl-1H-pyrazol-4-yl)-5-(pyridin-2-yl)isoxazole-3-carboxamide] gave an inhibition at 1 µM [1, 10] of less than 25% and an IC50 [1, 11] greater than 10 µM.
Compound `Cc1nc(-c2ccccn2)sc1C(=O)Nc1cnn([C@@H](C)c2ccc(C(F)(F)F)cc2C(F)(F)F)c1` [Compound 107, (S)—N-(1-(1-(2,4-bis(trifluoromethyl)phenyl)ethyl)-1H-pyrazol-4-yl)-4-methyl-2-(pyridin-2-yl)thiazole-5-carboxamide] has an inhibition at 1 µM [1, 10] of less than 25% and an IC50 [1, 11] greater than 10 µM.
With `Cc1cccc(-c2cc(C(=O)Nc3cnn([C@@H](C)c4ccc(C(F)(F)F)cc4C(F)(F)F)c3)no2)n1` [Compound 117, (S)—N-(1-(1-(2,4-bis(trifluoromethyl)phenyl)ethyl)-1H-pyrazol-4-yl)-5-(6-methylpyridin-2-yl)isoxazole-3-carboxamide] the inhibition at 1 µM [1, 10] was less than 25% and the IC50 [1, 11] was greater than 10 µM.
Work on `CC(C)(O)c1cc(C(=O)Nc2cnn(Cc3ccc(C(F)(F)F)cc3C(F)(F)F)c2)no1` [Compound 2, N-(1-(2,4-bis(trifluoromethyl)benzyl)-1H-pyrazol-4-yl)-5-(2-hydroxypropan-2-yl)isoxazole-3-carboxamide] yielded an inhibition at 1 µM [1, 10] of less than 25% and an IC50 [1, 11] greater than 10 µM.
Work on `C[C@H](c1ccc(C(F)(F)F)cc1C(F)(F)F)n1cc(NC(=O)c2coc(-c3ccccn3)n2)cn1` [Compound 125, (R)—N-(1-(1-(2,4-bis(trifluoromethyl)phenyl)ethyl)-1H-pyrazol-4-yl)-2-(pyridin-2-yl)oxazole-4-carboxamide] yielded an inhibition at 1 µM [1, 10] of less than 25% and an IC50 [1, 11] greater than 10 µM.
`O=C(Nc1cnn(C2Cc3ccccc3C2)c1)c1cc(-c2ccco2)on1` [Compound 18, N-(1-(2,3-dihydro-1H-inden-2-yl)-1H-pyrazol-4-yl)-5-(furan-2-yl) isoxazole-3-carboxamide] gave an inhibition at 1 µM [1, 10] of less than 25% and an IC50 [1, 11] greater than 10 µM.
`O=C(Nc1cnn(Cc2c(Cl)cccc2Cl)c1)c1nnc(-c2ccco2)s1` [Compound 148, N-(1-(2,6-dichlorobenzyl)-1H-pyrazol-4-yl)-5-(furan-2-yl)-1,3,4-thiadiazole-2-carboxamide] showed an inhibition at 1 µM [1, 10] of less than 25% and an IC50 [1, 11] greater than 10 µM.
With Ceapin-A8 [reference compound] the “Inh. ATF6-Luc @ 1 μM [%]” value ([1]; 1 μM test compound, thapsigargin-induced ER stress, U2-OS ATF6 luc reporter cells, 8 hr) was “+ (+ refers to <25% inhibition at 1 μM)” and the IC50 ([1]; dose-response 30 μM to 1 nM, thapsigargin-induced ER stress, U2-OS ATF6 luc reporter cells, read-out: IC50 ATF6-Luc reporter) was greater than 10 µM.
